# According to patent publication US20240415819A1, “MACROCYCLIC COMPOUNDS AS PROTEASOME SUBUNIT BETA TYPE-5 INHIBITORS” (Lead Discovery Center GmbH, priority 2021, published 2024):
# Legend:
# [1] = system: HT-29 cells; test: CellTiter-Glo luminescent cell viability assay with HT-29 cells (72h incubation); assay type: cell-based, human; conditions: Homo sapiens, HT-29, HT29 cells, read-out: CTG HT29
# How it was run: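 400 cells per well in DMEM/10% FCS were dosed after 24 h and kept 72 h at 37 °C, 5% CO2. ATP-based luminescence (CellTiter-Glo) normalized to DMSO and 10 μM staurosporine controls; IC50 by dose-response fit.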
# [2] = target: T1, β5 subunit of the human immunoproteasome (IPS) (Homo sapiens, UniProt P28062); test: β5 inhibition assay, human immunoproteasome (Suc-LLVY-AMC); assay type: biochemical; conditions: IC50 class, Suc-LLVY-AMC substrate
# T1 construct: purchased Boston Biochem E-370
# How it was run: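 Human immunoproteasome (1 nM final) was preincubated 10 min at RT with compound in 100 mM HEPES pH 7.5, 50 mM NaCl, 0.02% SDS, 1 mM DTT. Suc-LLVY-AMC (22.6 μM final) was then added for 4 h at RT in the dark. After stopping with 1 μM bortezomib, AMC fluorescence was read (ex 355/em 460 nm).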
# [3] = target: T2, β5 subunit of the human constitutive proteasome (CPS) (Homo sapiens, UniProt P28074); test: β5 inhibition assay, human constitutive proteasome (Suc-LLVY-AMC); assay type: biochemical; conditions: IC50 class, Suc-LLVY-AMC substrate
# T2 construct: purchased Boston Biochem E-360
# Procedure: The enzymatic activity of the β5 subunit of the human constitutive proteasome (CPS) is analyzed. In another assay, which differs from the assay of the human constitutive proteasome only in using the human immunoproteasome (IPS) the enzymatic activity of the β5 subunit of the human immunoproteasome (IPS) is analyzed. […] Inhibition is indicated as IC50 [nM] (“-”=not measured).
SMILES,IC50 [1] [nM],IC50 [2] [nM],IC50 [3] [nM]
"Cc1ccc2cc1CNC(=O)C(c1cnn(C)c1)NC(=O)[C@@H](NC(=O)CN1CCCC1)CC(=O)N1CCCC(CCO2)C1 (stereo partly drawn) [Compound 358, N-((12S)-5^4-methyl-9-(1-methyl-1H-pyrazol-4-yl)-8,11,14-trioxo-4-oxa-7,10-diaza-1(3,1)-piperidina-5(1,3)-benzenacyclotetradecaphane-12-yl)-2-(pyrrolidin-1-yl)acetamide]",100 to 500,< 100,100 to 500
"CC(=O)N[C@H]1CC(=O)N2CCCC(CCOc3ccc(C)c(c3)CNC(=O)C(c3cnn(CCOCCOCCOCCN)c3)NC1=O)C2 (stereo partly drawn) [Compound 566, N-((12S)-9-(1-(2-(2-(2-(2-aminoethoxy)ethoxy)ethoxy)ethyl)-1H-pyrazol-4-yl)-5^4-methyl-8,11,14-trioxo-4-oxa-7,10-diaza-1(3,1)-piperidina-5(1,3)-benzenacyclotetradecaphane-12-yl)acetamide]",100 to 500,< 100,< 100
"Cc1ccc2cc1CNC(=O)[C@H](CCc1ccccc1)NC(=O)[C@@H](NC(=O)Cc1ccccc1F)CC(=O)N1CCCC(CCO2)C1 (stereo partly drawn) [Compound 333, 2-(2-fluorophenyl)-N-((9S,12S)-5^4-methyl-8,11,14-trioxo-9-phenethyl-4-oxa-7,10-diaza-1(3,1)-piperidina-5(1,3)-benzenacyclotetradecaphane-12-yl)acetamide]",< 100,< 100,< 100
"Cc1ccc2cc1CNC(=O)[C@H](CCc1ccccc1)NC(=O)[C@@H](NC(=O)OCc1ccccc1)CC(=O)N1CC(C)CC(CCO2)C1 (stereo partly drawn) [Compound 337, benzyl ((9S,12S)-1^5,5^4-dimethyl-8,11,14-trioxo-9-phenethyl-4-oxa-7,10-diaza-1(3,1)-piperidina-5(1,3)-benzenacyclotetradecaphane-12-yl)carbamate]",< 100,< 100,< 100
"Cc1ccc2cc1CNC(=O)C(CCc1cnc3cccnc3c1)NC(=O)[C@@H](NC(=O)OCc1ccccc1)CC(=O)N1CCCC(CCO2)C1 (stereo partly drawn) [Compound 511, benzyl ((12S)-9-(2-(1,5-naphthyridin-3-yl)ethyl)-5^4-methyl-8,11,14-trioxo-4-oxa-7,10-diaza-1(3,1)-piperidina-5(1,3)-benzenacyclotetradecaphane-12-yl)carbamate]",< 100,< 100,< 100
"CC(=O)c1ccc(CC(=O)N[C@H]2CC(=O)N3CCCC(CCOc4ccc(C)c(c4)CNC(=O)[C@H](CCc4ccccc4)NC2=O)C3)cc1 (stereo partly drawn) [Compound 341, 2-(4-acetylphenyl)-N-((9S,12S)-54-methyl-8,11,14-trioxo-9-phenethyl-4-oxa-7,10-diaza-1(3,1)-piperidina-5(1,3)-benzenacyclotetradecaphane-12-yl)acetamide]",< 100,< 100,< 100
"CC(=O)N[C@H]1CCCC(=O)N(C)CCCCOc2ccc(C)c(c2)CNC(=O)[C@H](CCc2ccccc2)NC1=O [Compound 295, N-(1^4,7-dimethyl-8,13,16-trioxo-15-phenethyl-2-oxa-7,14,17-triaza-1(1,3)-benzenacyclooctadecaphane-12-yl)acetamide]",< 100,< 100,< 100
"CC(=O)N[C@H]1CC(=O)N2CCCC(CCOc3ccc(C)c(c3)CNC(=O)C(c3ccc4ncccc4c3)NC1=O)C2 (stereo partly drawn) [Compound 554, N-((12S)-5^4-methyl-8,11,14-trioxo-9-(quinolin-6-yl)-4-oxa-7,10-diaza-1(3,1)-piperidina-5(1,3)-benzenacyclotetradecaphane-12-yl)acetamide]",< 100,< 100,< 100

# Continued, values first:
IC50 [1] [nM],IC50 [2] [nM],IC50 [3] [nM],SMILES
< 100,< 100,< 100,"CC(=O)N[C@H]1CC(=O)N2CCCC(CCOc3ccc(C)c(c3)CNC(=O)C(Cn3c(=O)oc4ccccc43)NC1=O)C2 (stereo partly drawn) [Compound 555, N-((12S)-5^4-methyl-8,11,14-trioxo-9-((2-oxobenzo[d]oxazol-3(2H)-yl)methyl)-4-oxa-7,10-diaza-1(3,1)-piperidina-5(1,3)-benzenacyclotetradecaphane-12-yl)acetamide]"
< 100,< 100,< 100,"CC(=O)N[C@H]1CC(=O)N2CCCC(CCOc3ccc(C)c(c3)CNC(=O)[C@H](CCc3ccccc3)NC1=O)C2 (stereo partly drawn) [Compound 33, N-((9S,12S)-5^4-methyl-8,11,14-trioxo-9-phenethyl-4-oxa-7,10-diaza-1(3,1)-piperidina-5(1,3)-benzenacyclotetradecaphane-12-yl)acetamide]"
< 100,< 100,< 100,"Cc1ccc2cc1CNC(=O)C(CCc1ccncc1)NC(=O)[C@@H](NC(=O)OCc1ccccc1)CC(=O)N1CCCC(CCO2)C1 (stereo partly drawn) [Compound 336, benzyl ((12S)-5^4-methyl-8,11,14-trioxo-9-(2-(pyridin-4-yl)ethyl)-4-oxa-7,10-diaza-1(3,1)-piperidina-5(1,3)-benzenacyclotetradecaphane-12-yl)carbamate]"
< 100,< 100,< 100,"Cc1ccc2cc1CNC(=O)[C@H](CCc1ccccc1)NC(=O)[C@@H](NC(=O)Cc1cc(O)on1)CC(=O)N1CCCC(CCO2)C1 (stereo partly drawn) [Compound 335, 2-(5-hydroxyisoxazol-3-yl)-N-((9S,12S)-5^4-methyl-8,11,14-trioxo-9-phenethyl-4-oxa-7,10-diaza-1(3,1)-piperidina-5(1,3)-benzenacyclotetradecaphane-12-yl)acetamide]"
< 100,< 100,< 100,"Cc1ccc2cc1CNC(=O)C(c1cnn(C)c1)NC(=O)[C@@H](NC(=O)C1CCCc3ccccc31)CC(=O)N1CCCC(CCO2)C1 (stereo partly drawn) [Compound 360, N-((12S)-5^4-methyl-9-(1-methyl-1H-pyrazol-4-yl)-8,11,14-trioxo-4-oxa-7,10-diaza-1(3,1)-piperidina-5(1,3)-benzenacyclotetradecaphane-12-yl)-1,2,3,4-tetrahydronaphthalene-1-carboxamide]"
< 100,< 100,< 100,"Cc1ccc2cc1CNC(=O)[C@H](CCc1ccccc1)NC(=O)[C@@H](NC(=O)OCc1ccccc1)CCC(=O)N1CCC(CCO2)C1 (stereo partly drawn) [Compound 350, benzyl ((9S,12S)-5^4-methyl-8,11,15-trioxo-9-phenethyl-4-oxa-7,10-diaza-1(3,1)-pyrrolidina-5(1,3)-benzenacyclopentadecaphane-12-yl)carbamate]"
< 100,< 100,< 100,"CO[C@@H](C(=O)N[C@H]1CC(=O)N2CCCC(CCOc3ccc(C)c(c3)CNC(=O)C(c3cnn(C)c3)NC1=O)C2)c1ccccc1 (stereo partly drawn) [Compound 361, (2R)-2-methoxy-N-((12S)-5^4-methyl-9-(1-methyl-1H-pyrazol-4-yl)-8,11,14-trioxo-4-oxa-7,10-diaza-1(3,1)-piperidina-5(1,3)-benzenacyclotetradecaphane-12-yl)-2-phenylacetamide]"
< 100,< 100,< 100,"CC(=O)N[C@H]1CC(=O)N2CCCC(CCOc3ccc(C)c(c3)CNC(=O)C(CCc3cccnc3)NC1=O)C2 (stereo partly drawn) [Compound 549, N-((12S)-5^4-methyl-8,11,14-trioxo-9-(2-(pyridin-3-yl)ethyl)-4-oxa-7,10-diaza-1(3,1)-piperidina-5(1,3)-benzenacyclotetradecaphane-12-yl)acetamide]"
